# How the values were obtained:
# YAP-TEAD interaction = biological target: T1, YAP-TEAD interaction (Homo sapiens, UniProt P46937); test: Co-immunoprecipitation of myc-TEAD with HA-YAP from treated LN229 cells; type: cell-based; conditions: LN229 GBM cells, 24 h
# T1 construct: expressed in transfected cells; host or cells: LN229
# Method: FIGS. 1A-G show the identification of a YAP1-TEAD1 binding interface inhibitor. […] The Gal4 DBD was fused to residues 50-171 of human YAP1 and the Gal4 AD was fused to residues 194-411 of human TEAD1. These fusions were expressed in yeast containing reporters harboring Gal4 upstream activating sequences (UAS). […] Yeast expressing either p53-DBD and SV40 large T antigen-AD fusions or YAP1-DBD and TEAD1-AD fusions were plated on selective media. Compounds were pinned onto the plate surfaces by robotic transfer and subsequently examined for halo formation (indicated by red circles). Compounds inhibiting YAP1-TEAD1 mediated growth on selective media while having no effect on p53-T antigen mediated yeast growth were considered specific. Compounds which blocked the growth of both strains were considered nonspecific and were classified as having general antifungal properties. […] His-tagged YAP (amino acids 50-171 of Accession No. NP_006097) was used in a GST pull-down assay using GST-TEAD (amino acids 194-411 of Accession No. NP_068780) immobilized on glutathione resin. Pull-down products were analyzed by SDS-PAGE and silver staining. […] Cells treated with antimycin A are shown as a negative control. […] Raw binding sensorgrams obtained at each concentration were fitted to a 1:1 binding model and Kon, Koff and KD were calculated by simultaneous non-linear regression analyses.
# Protein and mRNA analyses, immunoprecipitation, in vitro bead-coupled inhibitor binding assays and HPLC analyses. […] Antigen-antibody complexes were detected using appropriate horseradish peroxidase-conjugated secondary antibodies (GE Healthcare) and enhanced chemiluminescence (Amersham ECL Prime). […] For quantitative RT-PCR, extraction of RNA was performed using Trizol® (Life Technologies). Total RNA was then quantified and integrity assessed using an Agilent 2100 Bioanalyzer (Agilent Technology). […] SYBR® Green quantitative PCR (Millipore Sigma) was performed in triplicate in 96-well optical plates on an ABI Prism 7000 Sequence Detection System (Life Technologies) according to the manufacturer's instructions. […]
# full-length human YAP1 = biological target: T2, full-length human YAP1 (Homo sapiens, UniProt P46937); test: Inhibitor-coupled bead binding of recombinant HA-tagged YAP; conditions: immunoblot of bound HA-YAP
# T2 construct: purified recombinant HA-tagged full-length human YAP1; made in house
# T2 sequence (P46937 whole entry): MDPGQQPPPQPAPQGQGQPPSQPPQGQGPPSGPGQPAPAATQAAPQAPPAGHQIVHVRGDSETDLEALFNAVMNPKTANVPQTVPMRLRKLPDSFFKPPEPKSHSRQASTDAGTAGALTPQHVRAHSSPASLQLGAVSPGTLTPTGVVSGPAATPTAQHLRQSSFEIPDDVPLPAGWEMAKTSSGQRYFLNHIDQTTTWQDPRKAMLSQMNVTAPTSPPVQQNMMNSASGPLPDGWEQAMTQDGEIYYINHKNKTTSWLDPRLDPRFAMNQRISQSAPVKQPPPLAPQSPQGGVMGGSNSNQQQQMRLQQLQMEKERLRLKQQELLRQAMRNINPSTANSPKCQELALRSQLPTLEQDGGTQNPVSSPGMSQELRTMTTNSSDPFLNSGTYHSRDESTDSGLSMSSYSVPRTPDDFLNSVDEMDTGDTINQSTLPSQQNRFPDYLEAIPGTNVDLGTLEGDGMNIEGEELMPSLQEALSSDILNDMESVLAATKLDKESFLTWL
# Method: FIGS. 1A-G show the identification of a YAP1-TEAD1 binding interface inhibitor. […] The Gal4 DBD was fused to residues 50-171 of human YAP1 and the Gal4 AD was fused to residues 194-411 of human TEAD1. These fusions were expressed in yeast containing reporters harboring Gal4 upstream activating sequences (UAS). […] Yeast expressing either p53-DBD and SV40 large T antigen-AD fusions or YAP1-DBD and TEAD1-AD fusions were plated on selective media. Compounds were pinned onto the plate surfaces by robotic transfer and subsequently examined for halo formation (indicated by red circles). […] Pull-down products were analyzed by SDS-PAGE and silver staining. […] Raw binding sensorgrams obtained at each concentration were fitted to a 1:1 binding model and Kon, Koff and KD were calculated by simultaneous non-linear regression analyses.
# Protein and mRNA analyses, immunoprecipitation, in vitro bead-coupled inhibitor binding assays and HPLC analyses. […] Antigen-antibody complexes were detected using appropriate horseradish peroxidase-conjugated secondary antibodies (GE Healthcare) and enhanced chemiluminescence (Amersham ECL Prime). […] For quantitative RT-PCR, extraction of RNA was performed using Trizol® (Life Technologies). Total RNA was then quantified and integrity assessed using an Agilent 2100 Bioanalyzer (Agilent Technology). […]
# [1] = Toxicity in treated mice (weight, blood cell counts, ALT, AST, creatinine); type: in vivo
# Source text: Data are expressed as percent of control mice that received vehicle and assigned 100%.
# Materials and Methods. Cell culture, vectors and reagents. Normal mature human neurons were obtained from ScienCell (Carlsbad, CA). Lines were routinely tested to confirm the absence of mycoplasma and authenticated by short tandem repeat profiling (ATCC). The myc-tagged TEAD (pRK5-Myc-TEAD1) and HA-tagged YAP1 (pCl-HA-YAP) vectors were used for mammalian expression and TEAD was subcloned into pGEX-2TK, while YAP was subcloned into pET-14b for bacterial expression and purification. DNA transfections were performed using Effectene transfection reagent according to the manufacturer (QIAGEN) and lentiviral transductions were performed as previously described (Rosenbluh J, et al. (2012) Cell 151: 1457-1473). Large-scale syntheses of NSC682769 was performed by New England Discovery Partners, Branford, CT. The other reagents including kits for ALT, AST and creatinine level determinations were from Sigma-Aldrich.
# NSC682769 inhibits GBM tumor growth in xenografted mice. To examine the effects of NSC682769 in vivo, the ability of the compound to inhibit the growth of LN229 xenografted tumors implanted subcutaneously in SCID mice was tested. Following implantation, when tumors reached ˜200 mm^3, mice were randomized into treatment groups receiving vehicle, 5 mg/kg/d and 20 mg/kg/d of NSC682769. […]
# T1 sequence (P46937 whole entry): as above
compound,measurement,setting,value
COc1ccc(-c2cc(-c3ccccc3)nc3c2CC(=O)Nc2ccccc2-3)cc1OC [NSC682769],Association of YAP1 with TEAD1 in YAP1 immunoprecipitates,YAP-TEAD interaction,blocked the association of YAP1 with TEAD1
same,Binding of YAP to compound-coupled beads,full-length human YAP1,associated strongly
same,Overt toxicity or weight loss,[1]; 5 and 20 mg/kg/d,No overt short or long-term toxicity or weight loss
same,"Blood cell counts, serum ALT, AST, creatinine","[1]; daily IP, 5 days, 5 or 20 mg/kg/d","neither blood cell counts nor serum alanine aminotransferase (ALT), aspartate aminotransferase (AST) or creatinine levels were affected"

# From patent publication US20240108634A1, “COMPOSITIONS AND METHODS FOR INHIBITING YAP” (The United States Government as represented by the …, priority 2021, published 2024)
